Test results reported in US20250188040A1, “PHARMACEUTICAL COMPOSITIONS COMPRISING WRN HELICASE INHIBITORS” (Vividion Therapeutics, Inc., priority 2022, published 2025).
Where two headings read alike, the source gives them in different places.

Experiments:
[1] = molecular target: T1, WRN C727 (Homo sapiens, UniProt Q14191); experiment: Target engagement, in vitro (lysate), OCI-AML2; assay type: binding; settings: read-out: OCI-AML2 WRN C727 TE50 in vitro (lysate)
T1 construct: endogenous in cells; host or cells: OCI-AML2
T1 sequence (Q14191 whole entry): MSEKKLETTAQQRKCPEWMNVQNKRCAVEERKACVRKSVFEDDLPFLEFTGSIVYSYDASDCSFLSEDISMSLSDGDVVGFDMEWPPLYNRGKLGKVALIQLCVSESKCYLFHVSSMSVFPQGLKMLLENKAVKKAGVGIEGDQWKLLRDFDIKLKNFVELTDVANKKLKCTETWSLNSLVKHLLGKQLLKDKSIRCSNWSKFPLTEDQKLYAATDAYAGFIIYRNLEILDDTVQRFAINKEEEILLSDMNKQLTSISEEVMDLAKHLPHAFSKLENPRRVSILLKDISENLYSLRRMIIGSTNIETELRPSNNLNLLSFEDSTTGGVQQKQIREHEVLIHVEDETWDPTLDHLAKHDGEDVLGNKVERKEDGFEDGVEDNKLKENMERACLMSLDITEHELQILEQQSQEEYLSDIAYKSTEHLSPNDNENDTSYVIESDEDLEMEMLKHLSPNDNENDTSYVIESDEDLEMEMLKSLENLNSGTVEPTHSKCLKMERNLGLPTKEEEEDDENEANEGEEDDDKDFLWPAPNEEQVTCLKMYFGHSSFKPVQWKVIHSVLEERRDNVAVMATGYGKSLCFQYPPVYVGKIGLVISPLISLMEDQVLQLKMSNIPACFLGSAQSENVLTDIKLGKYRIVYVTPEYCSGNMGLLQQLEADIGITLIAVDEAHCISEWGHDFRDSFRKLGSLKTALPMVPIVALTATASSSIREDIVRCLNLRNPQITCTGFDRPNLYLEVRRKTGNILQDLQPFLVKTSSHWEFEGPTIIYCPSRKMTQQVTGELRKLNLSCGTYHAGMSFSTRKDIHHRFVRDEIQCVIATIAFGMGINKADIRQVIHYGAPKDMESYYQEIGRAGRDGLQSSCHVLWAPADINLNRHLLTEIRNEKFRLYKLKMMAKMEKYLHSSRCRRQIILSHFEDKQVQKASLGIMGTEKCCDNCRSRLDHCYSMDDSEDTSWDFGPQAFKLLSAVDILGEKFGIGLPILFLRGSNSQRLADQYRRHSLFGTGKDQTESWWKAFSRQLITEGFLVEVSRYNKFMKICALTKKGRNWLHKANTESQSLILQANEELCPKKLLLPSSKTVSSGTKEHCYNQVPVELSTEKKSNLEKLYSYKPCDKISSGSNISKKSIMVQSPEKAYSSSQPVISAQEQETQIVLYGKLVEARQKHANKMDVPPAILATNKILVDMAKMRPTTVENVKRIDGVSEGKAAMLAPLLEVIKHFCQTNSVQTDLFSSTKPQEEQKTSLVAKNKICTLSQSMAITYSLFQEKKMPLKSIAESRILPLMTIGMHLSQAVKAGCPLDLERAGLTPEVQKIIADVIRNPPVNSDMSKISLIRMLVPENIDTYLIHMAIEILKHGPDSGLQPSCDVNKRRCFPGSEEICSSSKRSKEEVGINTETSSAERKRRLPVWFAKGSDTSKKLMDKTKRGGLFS
Method: Cells or cell lysates were treated with a dose response of compound followed by probe treatment, which labels solvent exposed cysteines. Proteins were enzymatically digested with trypsin and probe-labelled peptides were enriched with streptavidin. Isolated peptides were then separated using reversed-phase liquid chromatography on a C18 column (Dionex Ultimated 3000 nano-LC, Thermo). Peptides were analyzed by parallel reaction monitoring mass spectrometry (Exploris 120, Thermo).
Target engagement (%) is calculated relative to DMSO treated control samples.

[2] = tested on: SW480 cells; experiment: Cell growth assay (CellTiter-Glo 2.0), SW480 MSS cell line; settings: Homo sapiens, SW480, 120 h, read-out: Cell Growth Inhibition GI50 SW480
[3] = tested on: HCT 116 cells; experiment: Cell growth assay (CellTiter-Glo 2.0), HCT 116 MSI-H cell line; settings: Homo sapiens, HCT-116, 120 h, read-out: Cell Growth Inhibition GI50 HCT-116
Method: The effects of compound on cellular viability were determined using the CellTiter-Glo® 2.0 Luminescent Cell Viability Assay (Promega, Madison, WI).
SW480 cells were seeded at 1,000 cells per well in Eagle's Minimum Essential Medium (EMEM) with 10% FBS. Both cell lines were seeded in a volume of 50 μL medium per well. […] The concentration range was adjusted as needed for compounds of different potencies. The cells treated with compounds were incubated for 5 days at 37° C. in 5% CO2. […] The plate was then read on a Clariostar plate reader (BMG Labtech, Cary, NC) in luminescence mode. The previously measured baseline cell viability was subtracted from the luminescence value of each well, and cell viability (% of DMSO) was plotted as a function of log compound concentration. The EC50 was then calculated for each compound using Dotmatics Software (San Diego, CA).

[4] = molecular target: hWRN(519-1227)_C-H3CV-GFP-10His (Homo sapiens, UniProt Q14191); experiment: Helicase Assay for WRN Inhibition (ATP-dependent, fluorescence based)
Sequence of hWRN(519-1227)_C-H3CV-GFP-10His (Q14191 519-1227): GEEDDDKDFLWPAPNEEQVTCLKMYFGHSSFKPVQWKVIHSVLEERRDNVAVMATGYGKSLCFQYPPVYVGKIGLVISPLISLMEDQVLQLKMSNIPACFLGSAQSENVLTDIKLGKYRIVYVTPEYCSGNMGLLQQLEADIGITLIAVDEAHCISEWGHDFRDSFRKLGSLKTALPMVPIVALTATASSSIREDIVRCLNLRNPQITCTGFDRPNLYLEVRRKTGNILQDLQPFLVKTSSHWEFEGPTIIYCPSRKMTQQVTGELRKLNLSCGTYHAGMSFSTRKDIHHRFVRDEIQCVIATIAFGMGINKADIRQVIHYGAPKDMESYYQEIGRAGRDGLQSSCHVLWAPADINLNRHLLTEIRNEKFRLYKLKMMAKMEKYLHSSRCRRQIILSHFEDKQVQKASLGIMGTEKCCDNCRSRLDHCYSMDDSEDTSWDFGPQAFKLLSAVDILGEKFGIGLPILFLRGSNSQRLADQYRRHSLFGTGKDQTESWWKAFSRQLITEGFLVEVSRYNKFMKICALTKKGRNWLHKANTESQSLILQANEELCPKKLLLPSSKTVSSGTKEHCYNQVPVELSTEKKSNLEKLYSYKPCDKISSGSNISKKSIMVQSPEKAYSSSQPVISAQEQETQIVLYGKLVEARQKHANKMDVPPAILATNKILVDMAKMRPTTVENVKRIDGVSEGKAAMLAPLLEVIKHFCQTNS
Method: Effects of compounds on WRN helicase activity were assessed with the Helicase Assay for WRN Inhibition. This is an ATP-dependent (inclusion of ATP is important and is required for this assay) fluorescence based assay using recombinant WRN and a fluorogenic DNA substrate.
WRN activity was normalized to signal from wells without WRN protein (background, 0% activity) and wells with protein treated only with DMSO (positive control, 10000 activity). For each compound the potency of inhibition (IC50) was determiined using Graphpad Prism.

[5] = WRN Helicase IC50, 30 min preincubation with ATP, 30 min reaction

Compound | IC50 [1] | GI50 [2] | GI50 [3] | IC50 [4, 5] | IC50 [4]
C[C@@H]1CC[C@H](c2ncc(C(=O)N[C@@H](C)/C=C/S(C)(=O)=O)c(Oc3ccccc3)n2)C1 (racemic) [Example 215] | 9620 nM | 8200 nM | 1400 nM | 2200 nM | 
CS(=O)(=O)/C=C/[C@H](Cc1ccccc1)NC(=O)c1cnc(C2CC2)nc1Oc1ccccc1 (single isomer, unassigned) [Example 20] | 9360 nM | 15400 nM | 745 nM | 1700 nM | 
CS(=O)(=O)/C=C\[C@H](Cc1ccccc1)NC(=O)c1cnc(C2CC2)nc1Oc1ccccc1 (single isomer, unassigned) [Example 21] | > 100000 nM | 14000 nM | 3100 nM | 6100 nM | 
CS(=O)(=O)/C=C\C1CN(C(=O)c2cnc(C3CC3)nc2Oc2ccccc2)C1 (single isomer, unassigned) [Example 23, (Z)-(2-cyclopropyl-4-phenoxypyrimidin-5-yl)(3-(2-(methylsulfonyl)vinyl)azetidin-1-yl)methanone] | 8830 nM | 2800 nM | 1100 nM |  | 3400 nM
CS(=O)(=O)/C=C/C1CN(C(=O)c2cnc(C3CC3)nc2Oc2ccccc2)C1 (single isomer, unassigned) [Example 24, (E)-(2-cyclopropyl-4-phenoxypyrimidin-5-yl)(3-(2-(methylsulfonyl)vinyl)azetidin-1-yl)methanone] | > 100000 nM | > 10000 nM | 7700 nM |  | 20000 nM
C[C@@H](/C=C/S(C)(=O)=O)NC(=O)c1cnc([C@H]2C[C@@H](C)C2)nc1Oc1ccccc1 (single isomer, unassigned) [Example 46] | 990 nM | > 11900 nM | 124 nM | 287 nM | 
C[C@@H](/C=C/S(C)(=O)=O)NC(=O)c1cnc([C@H]2C[C@H](C)C2)nc1Oc1ccccc1 (single isomer, unassigned) [Example 47] | 990 nM | > 12600 nM | 292 nM | 770 nM | 
CS(=O)(=O)/C=C/[C@@H](NC(=O)c1cnc([C@H]2C[C@@H](C)C2)nc1Oc1ccccc1)C1CC1 (single isomer, unassigned) [Example 48] | 35 nM | 5970 nM | 36.5 nM | 62 nM | 
CS(=O)(=O)/C=C/[C@@H](NC(=O)c1cnc([C@H]2C[C@H](C)C2)nc1Oc1ccccc1)C1CC1 (single isomer, unassigned) [Example 49] | 220 nM | 5190 nM | 60.2 nM | 92 nM | 
CS(=O)(=O)C=C1CN(C(=O)c2cnc([C@H]3C[C@@H](C)C3)nc2Oc2ccccc2)C1 (single isomer, unassigned) [Example 50, (2-((1s,3s)-3-methylcyclobutyl)-4-phenoxypyrimidin-5-yl)(3-((methylsulfonyl)methylene)azetidin-1-yl)methanone] | 280 nM | 7500 nM | 94.7 nM |  | 220 nM
CS(=O)(=O)C=C1CN(C(=O)c2cnc([C@H]3C[C@H](C)C3)nc2Oc2ccccc2)C1 (single isomer, unassigned) [Example 51, (2-((1r,3r)-3-methylcyclobutyl)-4-phenoxypyrimidin-5-yl)(3-((methylsulfonyl)methylene)azetidin-1-yl)methanone] | 3300 nM | 8520 nM | 184 nM |  | 450 nM
CC(C)(C)c1ncc(C(=O)N[C@H](/C=C/S(C)(=O)=O)Cc2ccccc2)c(Oc2ccccc2)n1 (single isomer, unassigned) [Example 60] | 2870 nM | 13000 nM | 200 nM | 410 nM | 
CC(C)(C)c1ncc(C(=O)N[C@H](/C=C\S(C)(=O)=O)Cc2ccccc2)c(Oc2ccccc2)n1 (single isomer, unassigned) [Example 61] | > 100000 nM | 7500 nM | 1300 nM | 3500 nM | 
CC(/C=C/S(C)(=O)=O)NC(=O)c1cc(F)c(C2=CCCC2)nc1Oc1ccccc1 (stereo in doubt) [Example 206, (R,E)-6-(cyclopent-1-en-1-yl)-5-fluoro-N-(4-(methylsulfonyl)but-3-en-2-yl)-2-phenoxynicotinamide] | 20000 nM | 8600 nM | 5700 nM |  | 11000 nM
CC(C)[C@@H](/C=C/S(C)(=O)=O)NC(=O)c1cnc(C2CCCC2)nc1Oc1ccccc1 [Example 7, (S,E)-2-cyclopentyl-N-(4-methyl-1-(methylsulfonyl)pent-1-en-3-yl)-4-phenoxypyrimidine-5-carboxamide] | 14000 nM | > 19500 nM | 1160 nM | 2700 nM | 
CS(=O)(=O)/C=C/[C@@H](NC(=O)c1cnc(C2CCCC2)nc1Oc1ccccc1)C1CC1 [Example 8, (S,E)-2-cyclopentyl-N-(1-cyclopropyl-3-(methylsulfonyl)allyl)-4-phenoxypyrimidine-5-carboxamide] | 195 nM | 6720 nM | 44 nM | 75.8 nM | 
CS(=O)(=O)/C=C/[C@@H](NC(=O)c1cnc(C2CCCC2)nc1Oc1ccccc1)C1CCC1 [Example 9, (S,E)-N-(1-cyclobutyl-3-(methylsulfonyl)allyl)-2-cyclopentyl-4-phenoxypyrimidine-5-carboxamide] | 310 nM | 15000 nM | 43 nM | 160 nM | 
COC[C@@H](/C=C/S(C)(=O)=O)NC(=O)c1cnc(C2CCCC2)nc1Oc1ccccc1 [Example 10, (R,E)-2-cyclopentyl-N-(1-methoxy-4-(methylsulfonyl)but-3-en-2-yl)-4-phenoxypyrimidine-5-carboxamide] | 240 nM | 27400 nM | 72.4 nM | 130 nM | 
CC(C)c1ncc(C(=O)N[C@H](/C=C/S(C)(=O)=O)C2CC2)c(Oc2ccccc2)n1 [Example 16, (S,E)-N-(1-cyclopropyl-3-(methylsulfonyl)allyl)-2-isopropyl-4-phenoxypyrimidine-5-carboxamide] | 650 nM | 24300 nM | 85 nM | 180 nM | 
C[C@@H](/C=C/S(=O)(=O)C1CC1)NC(=O)c1cnc(C2CC2)nc1Oc1ccccc1 [Example 25, (S,E)-2-cyclopropyl-N-(4-(cyclopropylsulfonyl)but-3-en-2-yl)-4-phenoxypyrimidine-5-carboxamide] | > 100000 nM | > 10000 nM | 5000 nM | 12000 nM | 
CS(=O)(=O)/C=C1/CCN(C(=O)c2cnc(C3CC3)nc2Oc2ccccc2)C1 [Example 26, (2-cyclopropyl-4-phenoxy-pyrimidin-5-yl)-[(3Z)-3-(methylsulfonylmethylene)pyrrolidin-1-yl]methanone] | > 100000 nM | 54000 nM | 18000 nM |  | 103000 nM
CS(=O)(=O)/C=C/[C@H](CC1CC1)NC(=O)c1cnc(C2CC2)nc1Oc1ccccc1 [Example 28, (S,E)-2-cyclopropyl-N-(1-cyclopropyl-4-(methylsulfonyl)but-3-en-2-yl)-4-phenoxypyrimidine-5-carboxamide] | 6740 nM | 37200 nM | 606 nM | 1500 nM | 
CS(=O)(=O)/C=C/[C@@H](NC(=O)c1cnc(C2CC2)nc1Oc1ccccc1)C1CCC1 [Example 29, (S,E)-N-(1-cyclobutyl-3-(methylsulfonyl)allyl)-2-cyclopropyl-4-phenoxypyrimidine-5-carboxamide] | 1680 nM | 37400 nM | 165 nM | 645 nM | 
CS(=O)(=O)/C=C/[C@@H](NC(=O)c1cnc(OC2CC2)nc1Oc1ccccc1)C1CC1 [Example 245, (S,E)-2-cyclopropoxy-N-(1-cyclopropyl-3-(methylsulfonyl)allyl)-4-phenoxypyrimidine-5-carboxamide] |  | 36000 nM | 140 nM | 1100 nM | 
CS(=O)(=O)/C=C/[C@@H](NC(=O)c1cnc(OCC(F)(F)F)nc1Oc1ccccc1)C1CC1 [Example 246, (S,E)-N-(1-cyclopropyl-3-(methylsulfonyl)allyl)-4-phenoxy-2-(2,2,2-trifluoroethoxy)pyrimidine-5-carboxamide] |  | 16000 nM | 640 nM | 8000 nM | 
Cc1cc(C(=O)N[C@@H](C)/C=C/S(C)(=O)=O)c(Oc2ccccc2)nc1C1CCCC1 [Example 262, (S,E)-6-cyclopentyl-5-methyl-N-(4-(methylsulfonyl)but-3-en-2-yl)-2-phenoxynicotinamide] |  | 3000 nM | 1700 nM | 6500 nM | 
C[C@@H](C#CC(=O)N(C)C)NC(=O)c1cnc(C(C)(F)F)nc1Oc1ccccc1 [Example 263, (S)-2-(1,1-difluoroethyl)-N-(5-(dimethylamino)-5-oxopent-3-yn-2-yl)-4-phenoxypyrimidine-5-carboxamide] |  | 2300 nM | 1400 nM | 5500 nM | 
C=C(CNC(=O)c1cnc(C2CC2)nc1Oc1ccccc1)S(C)(=O)=O [Example 287, 2-cyclopropyl-N-(2-(methylsulfonyl)allyl)-4-phenoxypyrimidine-5-carboxamide] |  | 3900 nM | 3500 nM | 8000 nM | 
